Laboratory results: the supplement of paper PMC11208160

assay: recombinant UMI read abundance after kanamycin selection (control-corrected) (log10(CPM+1)); higher = more efficient recombination; extreme values may be limits of the assay; sequences stand for … in AGTGCAGAGAAAATCGGCCAGTTTTCTCTGCCTGCAGTCCGCATGCCGTGGGACCCCTTGGGTTCTAACCTGTTGCCTAGATTTATGCAGCGGACTGCCTTTCTCCCAAAGTGATAAACCGG…AGGTTGGTTTCACT; site = the 11-nt donor
Protocol: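 Pooled E. coli donor-specificity screen for the IS621 bridge recombinase. Each library member carries a reprogrammed 11-nt donor and a full-length LE bridge RNA expressed in cis from the natural promoter, with a paired donor-binding loop (8-nt LDG + 4-nt RDG) and a target-binding loop fixed to T5. It is co-electroporated with a T5 target plasmid; recombinase is induced with 0.07 mM IPTG and recombinants are selected on kanamycin. UMIs are counted as CPM, averaged over two biological replicates and corrected by the unselected control. Molecule = full bridge RNA written as DNA, built from the T5 scaffold: LDG = donor specificity nt 1-8, RDG = reverse complement of nt 8-11.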
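Also: IS621 bridge recombinase in Escherichia coli cells against a fixed T5 target plasmid.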

Row | Sequence | recombinant UMI read abundance (log10)
1 | ACAGTATCATGGACCGGTTTTCCCGGTAATCCGTATTTGAA (site ACAGTATCTTT) | 3.04
2 | ACAGTATCATGGACCGGTTTTCCCGGTAATCCGTATTTGAC (site ACAGTATCTGT) | 3.52
3 | ACAGTATCATGGACCGGTTTTCCCGGTAATCCGTATTTGAC (site ACAGTATCTTG) | 1.15
4 | ACAGTATCATGGACCGGTTTTCCCGGTAATCCGTATTTGAC (site CTAGTATCTGT) | 1.64
5 | ACAGTATCATGGACCGGTTTTCCCGGTAATCCGTATTTGCC (site ACAGTATCTAG) | 1.42
6 | ACAGTATCATGGACCGGTTTTCCCGGTAATCCGTATTTGCC (site ACAGTATCTCG) | 1.77
7 | ACAGTATCATGGACCGGTTTTCCCGGTAATCCGTATTTGCC (site ACAGTATCTGG) | 2.92
8 | ACAGTATCATGGACCGGTTTTCCCGGTAATCCGTATTTGCC (site ACAGTATCTTG) | 1.9
9 | ACAGTATCATGGACCGGTTTTCCCGGTAATCCGTATTTGTA (site ACAGTATCTTA) | 3.08
10 | ACAGTATCATGGACCGGTTTTCCCGGTAATCCGTATTTGTA (site ACAGTATCTTC) | 2.02
11 | ACAGTATCATGGACCGGTTTTCCCGGTAATCCGTATTTGTA (site ACAGTATCTTG) | 2.51
12 | ACAGTATCATGGACCGGTTTTCCCGGTAATCCGTATTTGTA (site ACAGTATCTTT) | 2.44
13 | ACAGTGTCATGGACCGGTTTTCCCGGTAATCCGTATTTGAA (site ACAGTATCTTG) | 1.04
14 | ACAGTGTCATGGACCGGTTTTCCCGGTAATCCGTATTTGAA (site ACAGTGTCTTT) | 3.19
15 | ACAGTTCCATGGACCGGTTTTCCCGGTAATCCGTATTTGCC (site ACAGTTCCTGG) | 0
16 | ACATCAACATGGACCGGTTTTCCCGGTAATCCGTATTTGTC (site ACATCAACTGA) | 1.34
17 | ACATCAACATGGACCGGTTTTCCCGGTAATCCGTATTTGTG (site ACATCAACTCA) | 0.878
18 | ACATCAACATGGACCGGTTTTCCCGGTAATCCGTATTTGTG (site ACATCCACTCA) | 0.0219
19 | ACATCAACATGGACCGGTTTTCCCGGTAATCCGTATTTGTG (site ACATCGACTCA) | 0.0265
20 | ACATCAACATGGACCGGTTTTCCCGGTAATCCGTATTTGTG (site ACATCTACTCA) | 0.206
21 | ACATCCTCATGGACCGGTTTTCCCGGTAATCCGTATTTGTC (site ACATCCTCTGA) | 2.8
22 | ACATGTACATGGACCGGTTTTCCCGGTAATCCGTATTTGAC (site ACATGTACTGT) | 1.76
23 | ACATTATCATGGACCGGTTTTCCCGGTAATCCGTATTTGCA (site ACAATATCTTG) | 1.92
24 | ACATTATCATGGACCGGTTTTCCCGGTAATCCGTATTTGCA (site ACACTATCTTG) | 2.24

Row | Sequence | recombinant UMI read abundance (log10)
25 | ACATTATCATGGACCGGTTTTCCCGGTAATCCGTATTTGCA (site ACAGTATCTTG) | 1.69
26 | ACATTATCATGGACCGGTTTTCCCGGTAATCCGTATTTGCA (site ACATTATCTTG) | 2.01
27 | ACCAACCCATGGACCGGTTTTCCCGGTAATCCGTATTTGCG (site ACCAACCCTCG) | 0
28 | ACCAAGACATGGACCGGTTTTCCCGGTAATCCGTATTTGGG (site ACCAAGACTCC) | 0.0181
29 | ACCAAGACATGGACCGGTTTTCCCGGTAATCCGTATTTGGG (site ACCCAGACTCC) | 0.0318
30 | ACCAAGACATGGACCGGTTTTCCCGGTAATCCGTATTTGGG (site ACCGAGACTCC) | 0.0218
31 | ACCAAGACATGGACCGGTTTTCCCGGTAATCCGTATTTGGG (site ACCTAGACTCC) | 0.0189
32 | ACCAGAACATGGACCGGTTTTCCCGGTAATCCGTATTTGAA (site ACCAGAACTTT) | 1.72
33 | ACCAGTCCATGGACCGGTTTTCCCGGTAATCCGTATTTGCG (site GATGCATCTTA) | 0
34 | ACCAGTGCATGGACCGGTTTTCCCGGTAATCCGTATTTGGT (site ACAAGTGCTAC) | 0.0927
35 | ACCAGTGCATGGACCGGTTTTCCCGGTAATCCGTATTTGGT (site ACCAGTGCTAC) | 0.472
36 | ACCAGTGCATGGACCGGTTTTCCCGGTAATCCGTATTTGGT (site ACGAGTGCTAC) | 0.0125
37 | ACCAGTGCATGGACCGGTTTTCCCGGTAATCCGTATTTGGT (site ACTAGTGCTAC) | 0.19
38 | ACCCAAGCATGGACCGGTTTTCCCGGTAATCCGTATTTGAG (site AACCAAGCTCT) | 0.712
39 | ACCCAAGCATGGACCGGTTTTCCCGGTAATCCGTATTTGAG (site ACCCAAGCTCT) | 1.97
40 | ACCCAAGCATGGACCGGTTTTCCCGGTAATCCGTATTTGAG (site AGCCAAGCTCT) | 0.021
41 | ACCCAAGCATGGACCGGTTTTCCCGGTAATCCGTATTTGAG (site ATCCAAGCTCT) | 0.467
42 | ACCCACCCATGGACCGGTTTTCCCGGTAATCCGTATTTGAG (site ACCCACCCTCT) | 0.00795
43 | ACCCTAGCATGGACCGGTTTTCCCGGTAATCCGTATTTGAT (site ACCCTAGCTAT) | 0.558
44 | ACCCTCTCATGGACCGGTTTTCCCGGTAATCCGTATTTGGG (site ACCCTCTCTCC) | 0.0124
45 | ACCGAGGCATGGACCGGTTTTCCCGGTAATCCGTATTTGGG (site ACCGAGGCTCC) | 0.157
46 | ACCGCGGCATGGACCGGTTTTCCCGGTAATCCGTATTTGAT (site ACCGCGGCTAT) | 1.78
47 | ACCGGATCATGGACCGGTTTTCCCGGTAATCCGTATTTGAG (site ACCGGATCTCT) | 1.22
48 | ACCGGATCATGGACCGGTTTTCCCGGTAATCCGTATTTGCG (site ACCGGATCTCG) | 2.56

Row | Sequence | recombinant UMI read abundance (log10)
49 | ACCGTAACATGGACCGGTTTTCCCGGTAATCCGTATTTGCA (site ACAGTATCTTG) | 1.49
50 | ACCGTAACATGGACCGGTTTTCCCGGTAATCCGTATTTGCA (site ACCGTAACTTG) | 2.34
51 | ACCGTATCATGGACCGGTTTTCCCGGTAATCCGTATTTGGA (site ACAGTATCTTG) | 0.692
52 | ACCGTATCATGGACCGGTTTTCCCGGTAATCCGTATTTGGA (site ACCGTATCTTC) | 1.83
53 | ACCTAGACATGGACCGGTTTTCCCGGTAATCCGTATTTGGA (site ACCTAGACTAC) | 0
54 | ACCTAGACATGGACCGGTTTTCCCGGTAATCCGTATTTGGA (site ACCTAGACTCC) | 0.0104
55 | ACCTAGACATGGACCGGTTTTCCCGGTAATCCGTATTTGGA (site ACCTAGACTGC) | 0
56 | ACCTAGACATGGACCGGTTTTCCCGGTAATCCGTATTTGGA (site ACCTAGACTTC) | 0.725
57 | ACCTAGTCATGGACCGGTTTTCCCGGTAATCCGTATTTGGG (site ACCTAGACTCC) | 0
58 | ACCTAGTCATGGACCGGTTTTCCCGGTAATCCGTATTTGGG (site ACCTAGCCTCC) | 0.017
59 | ACCTAGTCATGGACCGGTTTTCCCGGTAATCCGTATTTGGG (site ACCTAGGCTCC) | 0.0399
60 | ACCTAGTCATGGACCGGTTTTCCCGGTAATCCGTATTTGGG (site ACCTAGTCTCC) | 0.0642
61 | ACCTATACATGGACCGGTTTTCCCGGTAATCCGTATTTGAC (site AACTATACTGT) | 0
62 | ACCTATACATGGACCGGTTTTCCCGGTAATCCGTATTTGAC (site ACCTATACTGT) | 1.58
63 | ACCTATACATGGACCGGTTTTCCCGGTAATCCGTATTTGAC (site AGCTATACTGT) | 0.0116
64 | ACCTATACATGGACCGGTTTTCCCGGTAATCCGTATTTGAC (site ATCTATACTGT) | 0.368
65 | ACCTCGGCATGGACCGGTTTTCCCGGTAATCCGTATTTGTT (site ACCTCGGCTAA) | 0.681
66 | ACCTGGGCATGGACCGGTTTTCCCGGTAATCCGTATTTGCA (site ACCTGGGCTTG) | 0.909
67 | ACCTTGACATGGACCGGTTTTCCCGGTAATCCGTATTTGGG (site ACCTAGACTCC) | 0.0118
68 | ACCTTGACATGGACCGGTTTTCCCGGTAATCCGTATTTGGG (site ACCTCGACTCC) | 0.0142
69 | ACCTTGACATGGACCGGTTTTCCCGGTAATCCGTATTTGGG (site ACCTGGACTCC) | 0.0127
70 | ACCTTGACATGGACCGGTTTTCCCGGTAATCCGTATTTGGG (site ACCTTGACTCC) | 0.0408
71 | ACGAAGACATGGACCGGTTTTCCCGGTAATCCGTATTTGCA (site AAGAAGACTTG) | 2.3
72 | ACGAAGACATGGACCGGTTTTCCCGGTAATCCGTATTTGCA (site ACGAAGACTTG) | 2.78
